Reference: PubChem BioAssay (NCI)
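Following 48 hours of exposure in 96-well plates, responses at five concentrations were used to interpolate endpoints linearly. At the TGI there is no net growth.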

How the values were obtained:
Test in all cases: NCI-60 cell line screen, 48 h
SF-295 CNS = system: SF-295 CNS
RPMI-8226 leukemia = system: RPMI-8226 leukemia
LOX IMVI melanoma = system: LOX IMVI melanoma
SK-MEL-5 melanoma = system: SK-MEL-5 melanoma
SF-539 CNS = system: SF-539 CNS
SR leukemia = system: SR leukemia
SN12C renal = system: SN12C renal
HCT-15 colon = system: HCT-15 colon
HOP-92 NSCLC = system: HOP-92 NSCLC
MDA-MB-231 breast = system: MDA-MB-231 breast
HOP-62 NSCLC = system: HOP-62 NSCLC
NCI/ADR-RES ovarian = system: NCI/ADR-RES ovarian
HCT-116 colon = system: HCT-116 colon
NCI-H23 lung = system: NCI-H23 lung
MDA-N = system: MDA-N
MCF7 breast = system: MCF7 breast
K-562 leukemia = system: K-562 leukemia
SNB-75 CNS = system: SNB-75 CNS
HS 578T breast = system: HS 578T breast
786-0 renal = system: 786-0 renal
SK-OV-3 ovarian = system: SK-OV-3 ovarian
U251 CNS = system: U251 CNS
SNB-19 CNS = system: SNB-19 CNS
PC-3 prostate = system: PC-3 prostate
OVCAR-4 ovarian = system: OVCAR-4 ovarian
A549 NSCLC = system: A549 NSCLC
OVCAR-8 ovarian = system: OVCAR-8 ovarian
TK-10 renal = system: TK-10 renal
OVCAR-3 ovarian = system: OVCAR-3 ovarian
BT-549 breast = system: BT-549 breast
ACHN renal = system: ACHN renal
M14 melanoma = system: M14 melanoma
UACC-62 melanoma = system: UACC-62 melanoma
CAKI-1 renal = system: CAKI-1 renal
CCRF-CEM leukemia = system: CCRF-CEM leukemia
MDA-MB-435 = system: MDA-MB-435
NCI-H522 lung = system: NCI-H522 lung
MALME-3M melanoma = system: MALME-3M melanoma
A498 renal = system: A498 renal
IGROV1 ovarian = system: IGROV1 ovarian
MOLT-4 leukemia = system: MOLT-4 leukemia
SW-620 colon = system: SW-620 colon
SK-MEL-28 melanoma = system: SK-MEL-28 melanoma
UO-31 renal = system: UO-31 renal
SF-268 CNS = system: SF-268 CNS
RXF 393 renal = system: RXF 393 renal
OVCAR-5 ovarian = system: OVCAR-5 ovarian
SK-MEL-2 melanoma = system: SK-MEL-2 melanoma
NCI-H226 lung = system: NCI-H226 lung
UACC-257 melanoma = system: UACC-257 melanoma
EKVX NSCLC = system: EKVX NSCLC
COLO 205 colon = system: COLO 205 colon
HT29 colon = system: HT29 colon
HL-60(TB) leukemia = system: HL-60(TB) leukemia
T-47D breast = system: T-47D breast
DU-145 prostate = system: DU-145 prostate
NCI-H460 lung = system: NCI-H460 lung
KM12 colon = system: KM12 colon

With `CCOC(=O)c1c(CN2CCCC2)n(-c2ccccc2)c2cc(Br)c(OC)cc12` the TGI (SF-295 CNS) was 30.4 µM, the TGI (RPMI-8226 leukemia) was 34 µM and the TGI (LOX IMVI melanoma) was 27.5 µM. For the same compound, the TGI (SK-MEL-5 melanoma) was 25.3 µM, the TGI (SF-539 CNS) was 72.6 µM and the TGI (SR leukemia) was 25 µM. The TGI (SN12C renal) was greater than 100 µM, the TGI (HCT-15 colon) was 34.1 µM and the TGI (HOP-92 NSCLC) was 33.2 µM. For the same compound, the TGI (MDA-MB-231 breast) was 70.4 µM, the TGI (HOP-62 NSCLC) was 22.5 µM and the TGI (NCI/ADR-RES ovarian) was 80.8 µM. For the same compound, the TGI (HCT-116 colon) was 26.5 µM, the TGI (NCI-H23 lung) was 63.3 µM and the TGI (MDA-N) was greater than 100 µM. The TGI (MCF7 breast) was 23.4 µM, the TGI (K-562 leukemia) was 43.3 µM and the TGI (SNB-75 CNS) was 62.5 µM. The TGI (HS 578T breast) was greater than 100 µM, the TGI (786-0 renal) was 32 µM and the TGI (SK-OV-3 ovarian) was 78.3 µM. It also gave a TGI (U251 CNS) of 39.1 µM, a TGI (SNB-19 CNS) greater than 100 µM and a TGI (PC-3 prostate) of 77.2 µM. For the same compound, the TGI (OVCAR-4 ovarian) was greater than 100 µM, the TGI (A549 NSCLC) was 28.8 µM and the TGI (OVCAR-8 ovarian) was greater than 100 µM. It also gave a TGI (TK-10 renal) of 32.5 µM, a TGI (OVCAR-3 ovarian) of 61.2 µM and a TGI (BT-549 breast) of 58.1 µM. For the same compound, the TGI (ACHN renal) was 35.3 µM, the TGI (M14 melanoma) was 36.6 µM and the TGI (UACC-62 melanoma) was 23.8 µM. It also gave a TGI (CAKI-1 renal) greater than 100 µM, a TGI (CCRF-CEM leukemia) of 30.6 µM and a TGI (MDA-MB-435) greater than 100 µM. The TGI (NCI-H522 lung) was 31.6 µM, the TGI (MALME-3M melanoma) was 30.4 µM and the TGI (A498 renal) was 19.5 µM. For the same compound, the TGI (IGROV1 ovarian) was 45.6 µM, the TGI (MOLT-4 leukemia) was 24.3 µM and the TGI (SW-620 colon) was 73.9 µM. It also gave a TGI (SK-MEL-28 melanoma) of 35.3 µM, a TGI (UO-31 renal) of 29.8 µM and a TGI (SF-268 CNS) greater than 100 µM. For the same compound, the TGI (RXF 393 renal) was 17.5 µM, the TGI (OVCAR-5 ovarian) was 45.7 µM and the TGI (SK-MEL-2 melanoma) was 38.3 µM. The TGI (NCI-H226 lung) was 35.6 µM, the TGI (UACC-257 melanoma) was 28.6 µM and the TGI (EKVX NSCLC) was 55.5 µM. For the same compound, the TGI (COLO 205 colon) was 25.3 µM, the TGI (HT29 colon) was 24 µM and the TGI (HL-60(TB) leukemia) was 36 µM. The TGI (T-47D breast) was 38.6 µM, the TGI (DU-145 prostate) was 69.2 µM and the TGI (NCI-H460 lung) was 35.3 µM.

`Cn1c(=O)c2[nH]c(CCCCc3nc4c([nH]3)c(=O)n(C)c(=S)n4C)nc2n(C)c1=S` was tested, and the TGI (SF-295 CNS) was greater than 100 µM, the TGI (RPMI-8226 leukemia) was greater than 100 µM and the TGI (LOX IMVI melanoma) was greater than 100 µM. It also gave a TGI (SK-MEL-5 melanoma) greater than 100 µM, a TGI (SF-539 CNS) greater than 100 µM and a TGI (SR leukemia) greater than 100 µM. It also gave a TGI (SN12C renal) greater than 100 µM, a TGI (HCT-15 colon) greater than 100 µM and a TGI (HOP-92 NSCLC) greater than 100 µM. For the same compound, the TGI (KM12 colon) was greater than 100 µM, the TGI (MDA-MB-231 breast) was greater than 100 µM and the TGI (HOP-62 NSCLC) was greater than 100 µM. For the same compound, the TGI (NCI/ADR-RES ovarian) was greater than 100 µM, the TGI (HCT-116 colon) was greater than 100 µM and the TGI (NCI-H23 lung) was greater than 100 µM. It also gave a TGI (MDA-N) greater than 100 µM, a TGI (MCF7 breast) greater than 100 µM and a TGI (K-562 leukemia) greater than 100 µM. It also gave a TGI (SNB-75 CNS) of 53.1 µM, a TGI (HS 578T breast) greater than 100 µM and a TGI (786-0 renal) greater than 100 µM. The TGI (SK-OV-3 ovarian) was greater than 100 µM, the TGI (U251 CNS) was greater than 100 µM and the TGI (SNB-19 CNS) was greater than 100 µM. It also gave a TGI (PC-3 prostate) greater than 100 µM, a TGI (OVCAR-4 ovarian) greater than 100 µM and a TGI (A549 NSCLC) greater than 100 µM. It also gave a TGI (OVCAR-8 ovarian) greater than 100 µM, a TGI (TK-10 renal) greater than 100 µM and a TGI (OVCAR-3 ovarian) greater than 100 µM. It also gave a TGI (BT-549 breast) greater than 100 µM, a TGI (ACHN renal) greater than 100 µM and a TGI (M14 melanoma) greater than 100 µM. It also gave a TGI (UACC-62 melanoma) greater than 100 µM, a TGI (CAKI-1 renal) greater than 100 µM and a TGI (CCRF-CEM leukemia) greater than 100 µM. The TGI (MDA-MB-435) was greater than 100 µM, the TGI (NCI-H522 lung) was greater than 100 µM and the TGI (MALME-3M melanoma) was greater than 100 µM. For the same compound, the TGI (A498 renal) was greater than 100 µM, the TGI (IGROV1 ovarian) was greater than 100 µM and the TGI (SW-620 colon) was greater than 100 µM. For the same compound, the TGI (SK-MEL-28 melanoma) was greater than 100 µM, the TGI (UO-31 renal) was greater than 100 µM and the TGI (SF-268 CNS) was greater than 100 µM. For the same compound, the TGI (RXF 393 renal) was greater than 100 µM, the TGI (OVCAR-5 ovarian) was greater than 100 µM and the TGI (SK-MEL-2 melanoma) was greater than 100 µM. The TGI (NCI-H226 lung) was greater than 100 µM, the TGI (UACC-257 melanoma) was greater than 100 µM and the TGI (EKVX NSCLC) was greater than 100 µM. The TGI (COLO 205 colon) was greater than 100 µM, the TGI (HT29 colon) was greater than 100 µM and the TGI (T-47D breast) was greater than 100 µM. It also gave a TGI (DU-145 prostate) greater than 100 µM and a TGI (NCI-H460 lung) greater than 100 µM.
